Data from paper PMC10287695, “Non-covalent inhibitors of thioredoxin glutathione reductase with schistosomicidal activity in vivo” (Nature Communications, 2023).
Several values for one entry are separate records, joined by “and”; a condition that tells them apart may be missing. Equal values may be shown once.

Test system: TGR in newly transformed schistosomula (NTS)
Assay: TGR inhibition in NTS with TRFS-Green fluorescent probe;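 note: untreated reference is NTS exposed to TRFS-Green probe alone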
Assay type: cell-based, S. mansoni
Details: NTS
Method: TGR inhibition in NTS was assessed using a fluorescent probe TRFS-Green (Medchemexpress)[43]. NTS prepared as previously described and cultured in M199 supplemented with 5.5 mM D-glucose, penicillin-streptomycin and 5% heat inactivated fetal bovine serum were incubated at 37 °C in a clear bottom flat well plate in a 5% CO2 incubator overnight. […] NTS were further treated with TRFS-Green (10 µM) for additional 4 h and rinsed with M199 medium to remove residual TRFS-Green. Fluorescence images were obtained using Keyence BZ-X800. The quantification of fluorescence intensity upon the uptake of TRFS-Green by NTS was performed by a fluorescent microplate imager (BioTek Cytation3) (excitation, 438 nm; emission, 538 nm) hourly for 5 h and after 24 h.

| SMILES | TGR inhibition visualized by TRFS-Green, Average (1hr, 5 µM) | TGR inhibition visualized by TRFS-Green, single replicate (1hr, 5 µM) | TGR inhibition visualized by TRFS-Green, Average (1hr, 15 µM) | TGR inhibition visualized by TRFS-Green, single replicate (1hr, 15 µM) | TGR inhibition visualized by TRFS-Green, Average (1hr, 30 µM) | TGR inhibition visualized by TRFS-Green, single replicate (1hr, 30 µM) | TGR inhibition visualized by TRFS-Green, Average (2hr, 5 µM) | TGR inhibition visualized by TRFS-Green, single replicate (2hr, 5 µM) | TGR inhibition visualized by TRFS-Green, Average (2hr, 15 µM) | TGR inhibition visualized by TRFS-Green, single replicate (2hr, 15 µM) | TGR inhibition visualized by TRFS-Green, Average (2hr, 30 µM) | TGR inhibition visualized by TRFS-Green, single replicate (2hr, 30 µM) | TGR inhibition visualized by TRFS-Green, Average (3hr, 5 µM) | TGR inhibition visualized by TRFS-Green, single replicate (3hr, 5 µM) | TGR inhibition visualized by TRFS-Green, Average (3hr, 15 µM) | TGR inhibition visualized by TRFS-Green, single replicate (3hr, 15 µM) | TGR inhibition visualized by TRFS-Green, Average (3hr, 30 µM) | TGR inhibition visualized by TRFS-Green, single replicate (3hr, 30 µM) | TGR inhibition visualized by TRFS-Green, Average (4hr, 5 µM) | TGR inhibition visualized by TRFS-Green, single replicate (4hr, 5 µM) | also measured |
| --- | --- | --- | --- | --- | --- | --- | --- | --- | --- | --- | --- | --- | --- | --- | --- | --- | --- | --- | --- | --- | --- |
| C[C@@H]1[C@H]2C[C@@H](C[C@H]1NCc1nc3ccccc3n1C1CCCCCC1)C2(C)C [C8 (9VP173)] | 11538.5 | 11535 and 11542 | 11107.5 | 11094 and 11121 | 7413.5 | 7434 and 7393 | 18549 | 18864 and 18234 | 17855.5 | 17877 and 17834 | 9154.5 | 9096 and 9213 | 28617 | 28491 and 28743 | 26316 | 26509 and 26123 | 12119 | 12004 and 12234 | 29563.5 | 29504 and 29623 | TGR inhibition visualized by TRFS-Green, Average (4hr, 15 µM): 26307.5; TGR inhibition visualized by TRFS-Green, single replicate (4hr, 15 µM): 26632 and 25983; TGR inhibition visualized by TRFS-Green, Average (4hr, 30 µM): 10530.5; TGR inhibition visualized by TRFS-Green, single replicate (4hr, 30 µM): 10830 and 10231; TGR inhibition visualized by TRFS-Green, Average (5hr, 5 µM): 37986; TGR inhibition visualized by TRFS-Green, single replicate (5hr, 5 µM): 37989 and 37983; TGR inhibition visualized by TRFS-Green, Average (5hr, 15 µM): 27117; TGR inhibition visualized by TRFS-Green, single replicate (5hr, 15 µM): 26702 and 27532; TGR inhibition visualized by TRFS-Green, Average (5hr, 30 µM): 12834; TGR inhibition visualized by TRFS-Green, single replicate (5hr, 30 µM): 12855 and 12813; TGR inhibition visualized by TRFS-Green, Average (24hr, 5 µM): 47666; TGR inhibition visualized by TRFS-Green, single replicate (24hr, 5 µM): 46698 and 48634; TGR inhibition visualized by TRFS-Green, Average (24hr, 15 µM): 29478.5; TGR inhibition visualized by TRFS-Green, single replicate (24hr, 15 µM): 29985 and 28972; TGR inhibition visualized by TRFS-Green, Average (24hr, 30 µM): 14283.5; TGR inhibition visualized by TRFS-Green, single replicate (24hr, 30 µM): 14485 and 14082 |
| C[C@@H]1[C@H]2C[C@@H](C[C@H]1NCc1nc3ccccc3n1C)C2(C)C [C12 (8VP51)] | 11939.5 | 11982 and 11897 | 10673 | 10612 and 10734 | 10618.5 | 10903 and 10334 | 23845.5 | 23846 and 23845 | 20564.5 | 20516 and 20613 | 19325.5 | 19387 and 19264 | 33943 | 33973 and 33913 | 30062 | 30013 and 30111 | 28073.5 | 28013 and 28134 | 35461 | 35481 and 35441 | TGR inhibition visualized by TRFS-Green, Average (4hr, 15 µM): 33991.5; TGR inhibition visualized by TRFS-Green, single replicate (4hr, 15 µM): 33999 and 33984; TGR inhibition visualized by TRFS-Green, Average (4hr, 30 µM): 32914; TGR inhibition visualized by TRFS-Green, single replicate (4hr, 30 µM): 32993 and 32835; TGR inhibition visualized by TRFS-Green, Average (5hr, 5 µM): 41567.5; TGR inhibition visualized by TRFS-Green, single replicate (5hr, 5 µM): 41048 and 42087; TGR inhibition visualized by TRFS-Green, Average (5hr, 15 µM): 38445; TGR inhibition visualized by TRFS-Green, single replicate (5hr, 15 µM): 39026 and 37864; TGR inhibition visualized by TRFS-Green, Average (5hr, 30 µM): 33178.5; TGR inhibition visualized by TRFS-Green, single replicate (5hr, 30 µM): 33374 and 32983; TGR inhibition visualized by TRFS-Green, Average (24hr, 5 µM): 78091; TGR inhibition visualized by TRFS-Green, single replicate (24hr, 5 µM): 78082 and 78100; TGR inhibition visualized by TRFS-Green, Average (24hr, 15 µM): 70233; TGR inhibition visualized by TRFS-Green, single replicate (24hr, 15 µM): 70452 and 70014; TGR inhibition visualized by TRFS-Green, Average (24hr, 30 µM): 60492.5; TGR inhibition visualized by TRFS-Green, single replicate (24hr, 30 µM): 60864 and 60121 |
